In article PMC9917560, “Design, Synthesis and Antimicrobial Evaluation of New N-(1-Hydroxy-1,3-dihydrobenzo[c][1,2]oxaborol-6-yl)(hetero)aryl-2-carboxamides as Potential Inhibitors of Mycobacterial Leucyl-tRNA Synthetase” (International Journal of Molecular Sciences, 2023):
Where two headings read alike, the source gives them in different places.

Assays:
[1] = system: Mtb laboratory ID MATI; format: cell-based, Mycobacterium tuberculosis; settings: for Susceptibility: CLSI breakpoints 2021
[2] = system: Mycobacterium tuberculosis H37Ra ITM-M006710 (ATCC 9431); assay: Antimycobacterial microdilution (resazurin) vs Mtb H37Ra; format: cell-based; settings: Middlebrook 7H9, resazurin, recalculated from µg/mL, read-out: MIC Mtb H37Ra
[3] = system: Mycobacterium avium DSM 44,156 (ATCC 25291); assay: Antimycobacterial microdilution (resazurin) vs M. avium; format: cell-based; settings: Mycobacterium avium, Middlebrook 7H9, resazurin; read-out: MIC M. avium
[4] = system: Mycolicibacterium aurum DSM 43,999 (ATCC 23366); assay: Antimycobacterial microdilution (resazurin) vs M. aurum; format: cell-based; settings: Middlebrook 7H9, resazurin, read-out: MIC M. aurum
[5] = system: Mycolicibacterium smegmatis DSM 43,465 (ATCC 607); assay: Antimycobacterial microdilution (resazurin) vs M. smegmatis; format: cell-based; settings: Middlebrook 7H9, resazurin, read-out: MIC M. smeg.
[6] = system: Mtb laboratory ID IZAK; format: cell-based, Mycobacterium tuberculosis; settings: for Susceptibility: CLSI breakpoints 2020
[7] = system: Mycobacterium kansasii DSM 44,162 (ATCC 12478); assay: Antimycobacterial microdilution (resazurin) vs M. kansasii; format: cell-based; settings: Middlebrook 7H9, resazurin, read-out: MIC M. kansasii
[8] = system: Aspergillus fumigatus ATCC 204305; assay: Antifungal microdilution broth (EUCAST); format: cell-based; settings: Aspergillus fumigatus, ATCC204305, read-out: MIC Aspergillus fumigatus
[9] = system: Staphylococcus aureus subsp. aureus CCM 4223 (ATCC 29213); assay: Antibacterial microdilution broth (EUCAST); format: cell-based; settings: read-out: MIC Staphylococcus aureus subsp. aureus
[10] = system: Staphylococcus epidermidis CCM 4418 (ATCC 12228); assay: Antibacterial microdilution broth (EUCAST); format: cell-based; settings: read-out: MIC Staphylococcus epidermidis
[11] = system: Acinetobacter baumannii DSM 30007 (ATCC 19606); assay: Antibacterial microdilution broth (EUCAST); format: cell-based; settings: read-out: MIC Acinetobacter baumannii
[12] = system: Candida albicans CCM 8320 (ATCC 24433); assay: Antifungal microdilution broth (EUCAST); format: cell-based; settings: Candida albicans, read-out: MIC Candida albicans
[13] = system: Klebsiella pneumoniae CCM 4415 (ATCC 10031); assay: Antibacterial microdilution broth (EUCAST); format: cell-based; settings: for MIC: Klebsiella pneumoniae, read-out: MIC Klebsiella pneumoniae
[14] = system: HepG2 cell line; assay: Cytotoxicity screening, CellTiter 96 assay; settings: Homo sapiens, HepG2, 24 h, read-out: IC50 HepG2
[15] = system: Candida parapsilosis CCM 8260 (ATCC 22019); assay: Antifungal microdilution broth (EUCAST); format: cell-based; settings: Lodderomyces parapsilosis, read-out: MIC Candida parapsilosis
[16] = system: Candida tropicalis CCM 8264 (ATCC 750); assay: Antifungal microdilution broth (EUCAST); format: cell-based; settings: read-out: MIC Candida tropicalis
[17] = system: Mycobacterium tuberculosis H37Rv CNCTC My 331/88 (ATCC 27294); assay: Microplate Alamar Blue assay vs Mtb H37Rv; format: cell-based; settings: Middlebrook 7H9 pH 6.6, recalculated from µg/mL, read-out: MIC Mtb H37Rv
[18] = system: Pseudomonas aeruginosa CCM 3955 (ATCC 27853); assay: Antibacterial microdilution broth (EUCAST); format: cell-based; settings: read-out: MIC Pseudomonas aeruginosa
[19] = system: Lichtheimia corymbifera CCM 8077; assay: Antifungal microdilution broth (EUCAST); format: cell-based; settings: Lichtheimia corymbifera, CCM8077, read-out: MIC Lichtheimia corymbifera
[20] = system: Enterococcus faecalis CCM 4224 (ATCC 29212); assay: Antibacterial microdilution broth (EUCAST); format: cell-based; settings: read-out: MIC Enterococcus faecalis
[21] = system: methicillin-resistant Staphylococcus aureus subsp. aureus (MRSA) CCM 4750 (ATCC 43300); assay: microbe, parasite or virus in culture; format: cell-based; settings: read-out: MIC Methicillin-resistant Staphylococcus aureus subsp. aureus
[22] = system: Candida krusei CCM 8271 (ATCC 6258); assay: Antifungal microdilution broth (EUCAST); format: cell-based; settings: Pichia kudriavzevii, read-out: MIC Candida krusei
[23] = system: Escherichia coli CCM 3954 (ATCC 25922); assay: Antibacterial microdilution broth (EUCAST); format: cell-based; settings: for MIC: Escherichia coli, read-out: MIC Escherichia coli
[24] = system: Aspergillus flavus CCM 8363; assay: Antifungal microdilution broth (EUCAST); format: cell-based; settings: Aspergillus flavus, CCM8363, read-out: MIC Aspergillus flavus
[25] = system: Trichophyton interdigitale CCM 8377 (ATCC 9533); assay: Antifungal microdilution broth (EUCAST); format: cell-based; settings: Trichophyton interdigitale, read-out: MIC Trichophyton interdigitale
[26] = Mycobacterium tuberculosis, pH 6.6, MABA

CO[C@H]1/C=C/O[C@@]2(C)Oc3c(C)c(O)c4c(O)c(c(/C=N/N5CCN(C)CC5)c(O)c4c3C2=O)NC(=O)/C(C)=C\C=C\[C@H](C)[C@H](O)[C@@H](C)[C@@H](O)[C@@H](C)[C@H](OC(C)=O)[C@@H]1C [RIF, rifampicin, reference compound]
0.00759 µM: MIC [2]
15.2 µM: MIC [5]
0.08 µM: MIC [3]
0.47 µM: MIC [4]
resistant: Susceptibility ([1]; strain MATI) | Susceptibility ([6]; strain IZAK)
0.06 µM: MIC [7]
>9.72 µM: Concentration [1] | Concentration [6]

[H]/N=C(/N)N[C@H]1[C@H](O)[C@@H](O)[C@H](O[C@@H]2O[C@@H](C)[C@](O)(C=O)[C@H]2O[C@@H]2O[C@@H](CO)[C@H](O)[C@@H](O)[C@@H]2NC)[C@@H](N/C(N)=N\[H])[C@@H]1O [STM, streptomycin]
6.88 µM: Concentration ([6]; strain IZAK, CLSI 2020)
>27.51 µM: Concentration ([1]; strain MATI, CLSI 2021)
resistant: Susceptibility ([1]; strain MATI) | Susceptibility ([6]; strain IZAK)

NC(=O)c1cnccn1 [PZA, pyrazinamide]
>129.96 µM: Concentration ([6]; strain IZAK, CLSI 2020)
>1039.70 µM: Concentration ([1]; strain MATI, CLSI 2021)
resistant: Susceptibility ([1]; strain MATI) | Susceptibility ([6]; strain IZAK)

O=C(Nc1ccc2c(c1)B(O)OC2)c1cscn1 [Compound 16, N-(1-hydroxy-1,3-dihydrobenzo[c][1,2]oxaborol-6-yl)thiazole-4-carboxamide]
no inhibition: MIC Klebsiella pneumoniae ([13]; 48h incubation) | MIC Escherichia coli ([23]; 48h incubation)
15 µM: MIC [4]
250 µM: MIC ([21]; 24 h)
240 µM: MIC [3]
> 500 µM: MIC ([8]; 24h incubation) | MIC ([8]; 48h incubation) | MIC ([10]; 48h incubation) | MIC ([11]; 24h incubation) | MIC ([11]; 48h incubation) | MIC ([12]; 24h incubation) | MIC ([12]; 48h incubation) | MIC ([13]; 48h incubation) | MIC ([15]; 24h incubation) | MIC ([15]; 48h incubation) | MIC ([16]; 24h incubation) | MIC ([16]; 48h incubation) | MIC ([18]; 24h incubation) | MIC ([18]; 48h incubation) | MIC ([19]; 24h incubation) | MIC ([19]; 48h incubation) | MIC ([20]; 24h incubation) | MIC ([20]; 48h incubation) | MIC ([22]; 24h incubation) | MIC ([22]; 48h incubation) | MIC ([23]; 48h incubation) | MIC ([24]; 24h incubation) | MIC ([24]; 48h incubation) | MIC ([25]; 72h incubation) | MIC ([25]; 120h incubation)
96.1 µM: MIC [17, 26]
225.7 to 227.9 °C: melting point
> 1000 µM: IC50 [14]
120 µM: MIC [2]
500 µM: MIC ([10]; 24h incubation) | MIC ([13]; 24h incubation) | MIC ([21]; 48 h) | MIC ([23]; 24h incubation)
30 µM: MIC [5] | MIC [7]
125 µM: MIC ([9]; 24h incubation) | MIC ([9]; 48h incubation)

O=C(Nc1ccc2c(c1)B(O)OC2)c1ccc(O)nc1 [Compound 13, 6-hydroxy-N-(1-hydroxy-1,3-dihydrobenzo[c][1,2]oxaborol-6-yl)nicotinamide]
> 370 µM: MIC [17, 26]
304.8 to 306.9 °C: melting point
463 µM: MIC [2] | MIC [3]
> 1000 µM: IC50 [14]
116 µM: MIC [4] | MIC [5] | MIC [7]
> 500 µM: MIC ([8]; 24h incubation) | MIC ([8]; 48h incubation) | MIC ([9]; 24h incubation) | MIC ([9]; 48h incubation) | MIC ([10]; 24h incubation) | MIC ([10]; 48h incubation) | MIC ([11]; 24h incubation) | MIC ([11]; 48h incubation) | MIC ([12]; 24h incubation) | MIC ([12]; 48h incubation) | MIC ([13]; 24h incubation) | MIC ([13]; 48h incubation) | MIC ([15]; 24h incubation) | MIC ([15]; 48h incubation) | MIC ([16]; 24h incubation) | MIC ([16]; 48h incubation) | MIC ([18]; 24h incubation) | MIC ([18]; 48h incubation) | MIC ([19]; 24h incubation) | MIC ([19]; 48h incubation) | MIC ([20]; 24h incubation) | MIC ([20]; 48h incubation) | MIC ([21]; 24 h) | MIC ([21]; 48 h) | MIC ([22]; 24h incubation) | MIC ([22]; 48h incubation) | MIC ([23]; 24h incubation) | MIC ([23]; 48h incubation) | MIC ([24]; 24h incubation) | MIC ([24]; 48h incubation) | MIC ([25]; 72h incubation) | MIC ([25]; 120h incubation)
>370.30 µM: MIC ([17]; MABA)
